Holding throughout (type): cell-based
The subject of one experiment is Citrobacter diversus. Description: MIC against Gram-negative bacteria: Citrobacter diversus. The settings on record: 5×10^5 CFU/mL. In outline:
(§1)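 The recombinant human-originated EGF domain proteins were serially diluted two-fold against bacteria at 5×10^5 CFU/mL in LB medium. After shaken incubation at 37° C, the lowest concentration with no bacterial growth was recorded as the MIC.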

In another experiment the test system is Enterobacter cloacae. The experiment can be described thus: MIC against Gram-negative bacteria: Enterobacter cloacae. The following applies: 5×10^5 CFU/mL. In outline: as §1
A further experiment has as its system Pseudomonas aeruginosa. Description: MIC against Gram-negative bacteria: Pseudomonas aeruginosa. The following applies: 5×10^5 CFU/mL. In outline:
as §1

The next experiment has as its system Klebsiella pneumonia. The experiment can be described thus: MIC against Gram-negative bacteria: Klebsiella pneumonia. The following applies: 5×10^5 CFU/mL. In outline: as §1
The next experiment concerns E. coli DH5α. The experiment can be described thus: Antibacterial activity: MIC and growth curve against E. coli DH5α in 96-well plate. The settings on record: minimal inhibitory concentration against E. coli DH5α; 96-well plate, 5×10^5 CFU/mL, 37° C., judged after 8 h. In outline:
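Log-phase bacteria (OD600 ~0.5) resuspended in LB at 5×10^5 CFU/mL, exposed to recombinant protein at 50, 25, 12.5 μg/mL final in triplicate, 37 °C shaking at 175 rpm. OD600 read every 30 min; MIC is lowest concentration showing no growth.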

In the next experiment the test system is Proteus mirabilis. The experiment can be described thus: MIC against Gram-negative bacteria: Proteus mirabilis. The following applies: 5×10^5 CFU/mL. In outline: as §1
Another experiment concerns Serratia marcescens. Description: MIC against Gram-negative bacteria: Serratia marcescens. The settings on record: 5×10^5 CFU/mL. The method, boiled down: as §1
A further experiment has as its system Proteus vulgaris. Description: MIC against Gram-negative bacteria: Proteus vulgaris. The following applies: 5×10^5 CFU/mL. The method, boiled down:
as §1

The test system of a further experiment is Moraxella catarrhalis. The experiment can be described thus: MIC against Gram-negative bacteria: Moraxella catarrhalis. The following applies: 5×10^5 CFU/mL. In outline:
as §1

A further experiment concerns Aeromonas hydrophila. The experiment can be described thus: MIC against Gram-negative bacteria: Aeromonas hydrophila. The following applies: 5×10^5 CFU/mL. In outline: as §1
The test system of the next experiment is E. coli BL21. Description: MIC against Gram-negative bacteria: E. coli BL21. The settings on record: 5×10^5 CFU/mL. In outline:
as §1

Where [1] appears, read: 10 h cultivation at 37° C., two-fold serial dilution.

In the case of “PRT1169 (RDSQCDEATCNNGGTCYDEGDAFKCMCPGGWEGTTCN; listed as Homo sapiens)”, in the experiment on Citrobacter diversus (setting [1]), the “MIC C. diversus” value was determined as 50 µg/mL. Also, the “MIC E. cloacae” value against Enterobacter cloacae (setting [1]) was found to be 12.5 µg/mL. The “MIC P. aeruginosa” value in the experiment on Pseudomonas aeruginosa (setting [1]) turned out to be 50 µg/mL. Moreover, the “MIC K. pneumonia” value against Klebsiella pneumonia (setting [1]) is 25 µg/mL. In the experiment with E. coli DH5α, the MIC was determined as 50 µg/mL. In addition, the “MIC P. mirabilis” value against Proteus mirabilis (setting [1]) was 12.5 µg/mL. In the experiment on Serratia marcescens (setting [1]), the “MIC S. marcescens” value came out at 12.5 µg/mL. Besides, the “MIC P. vulgaris” value against Proteus vulgaris (setting [1]) worked out at 12.5 µg/mL. Besides, the “MIC M. catarrhalis” value against Moraxella catarrhalis (setting [1]) was determined as 12.5 µg/mL. The “MIC A. hydrophila” value against Aeromonas hydrophila (setting [1]) was 12.5 µg/mL. Besides, the “MIC E. coli BL21” value against E. coli BL21 (setting [1]) is 25 µg/mL.

As to “PRT216 (DIDECTAGTHNCRADQVCINLRGSFACQCPPGYQKRGEQCV; listed as Homo sapiens)”, in the experiment with Citrobacter diversus (10 h cultivation at 37° C.), the “MIC (μg/mL) C. diversus” value is 12.5 µg/mL. Further, in the experiment on Enterobacter cloacae (10 h cultivation at 37° C.), the “MIC (μg/mL) E. cloacae” value was determined as 12.5 µg/mL. In the experiment on Pseudomonas aeruginosa (10 h cultivation at 37° C.), the “MIC (μg/mL) P. aeruginosa” value came to 12.5 µg/mL. Moreover, in the experiment on Klebsiella pneumonia (10 h cultivation at 37° C.), the “MIC (μg/mL) K. pneumonia” value was determined as 50 µg/mL. The MIC in the experiment with E. coli DH5α was 12.5 µg/mL. Besides, the “MIC (μg/mL) P. mirabilis” value with Proteus mirabilis (10 h cultivation at 37° C.) came out at 25 µg/mL. Further, the “MIC (μg/mL) S. marcescens” value in the experiment on Serratia marcescens (10 h cultivation at 37° C.) amounted to 25 µg/mL. Besides, the “MIC (μg/mL) P. vulgaris” value against Proteus vulgaris (10 h cultivation at 37° C.) is 12.5 µg/mL. Also, the “MIC (μg/mL) M. catarrhalis” value against Moraxella catarrhalis (10 h cultivation at 37° C.) is 50 µg/mL. Besides, the “MIC (μg/mL) A. hydrophila” value in the experiment with Aeromonas hydrophila (10 h cultivation at 37° C.) came to 50 µg/mL. For the same substance, in the experiment with E. coli BL21 (10 h cultivation at 37° C.), the “MIC (μg/mL) E. coli BL21” value is 12.5 µg/mL.

For “PRT250 (DVDECRTSITLCSHHCFNTAGSFTCGCPHDLVLGVDGRTCM; listed as Homo sapiens)”, in the experiment with Citrobacter diversus (10 h cultivation at 37° C.), the “MIC (μg/mL) C. diversus” value worked out at 12.5 µg/mL. Further, in the experiment with Enterobacter cloacae (10 h cultivation at 37° C.), the “MIC (μg/mL) E. cloacae” value came out at 12.5 µg/mL. Moreover, the “MIC (μg/mL) P. aeruginosa” value in the experiment with Pseudomonas aeruginosa (10 h cultivation at 37° C.) is 12.5 µg/mL. Moreover, the “MIC (μg/mL) K. pneumonia” value in the experiment on Klebsiella pneumonia (10 h cultivation at 37° C.) is 12.5 µg/mL. In the experiment on E. coli DH5α, this substance had an MIC of 12.5 µg/mL. In addition, in the experiment on Proteus mirabilis (10 h cultivation at 37° C.), the “MIC (μg/mL) P. mirabilis” value is 12.5 µg/mL. In the experiment with Serratia marcescens (10 h cultivation at 37° C.), the “MIC (μg/mL) S. marcescens” value was determined as 12.5 µg/mL. The “MIC (μg/mL) P. vulgaris” value in the experiment with Proteus vulgaris (10 h cultivation at 37° C.) is 25 µg/mL. Moreover, the “MIC (μg/mL) M. catarrhalis” value against Moraxella catarrhalis (10 h cultivation at 37° C.) is 25 µg/mL. Moreover, in the experiment on Aeromonas hydrophila (10 h cultivation at 37° C.), the “MIC (μg/mL) A. hydrophila” value amounted to 25 µg/mL. Further, the “MIC (μg/mL) E. coli BL21” value against E. coli BL21 (10 h cultivation at 37° C.) amounted to 12.5 µg/mL.

Take “PRT445 (DVNECELYGQEGRPRLCMHACVNTPGSYRCTCPGGYRTLADGKSCE; listed as Homo sapiens)”: the “MIC against C. diversus” value against Citrobacter diversus (96-well plate, 37° C., 10 h) stood at 50 µg/mL. Also, the “MIC against E. cloacae” value against Enterobacter cloacae (96-well plate, 37° C., 10 h) amounted to 12.5 µg/mL. In the experiment on Pseudomonas aeruginosa (96-well plate, 37° C., 10 h), the “MIC against P. aeruginosa” value is 50 µg/mL. Also, the “MIC against K. pneumonia” value in the experiment on Klebsiella pneumonia (96-well plate, 37° C., 10 h) came out at 25 µg/mL. The MIC against E. coli DH5α was determined as 50 µg/mL. Further, in the experiment with Proteus mirabilis (96-well plate, 37° C., 10 h), the “MIC against P. mirabilis” value stood at 12.5 µg/mL. Also, in the experiment on Serratia marcescens (96-well plate, 37° C., 10 h), the “MIC against S. marcescens” value amounted to 12.5 µg/mL. Moreover, the “MIC against P. vulgaris” value in the experiment on Proteus vulgaris (96-well plate, 37° C., 10 h) turned out to be 12.5 µg/mL. For the same substance, the “MIC against M. catarrhalis” value in the experiment on Moraxella catarrhalis (96-well plate, 37° C., 10 h) was 12.5 µg/mL. The “MIC against A. hydrophila” value against Aeromonas hydrophila (96-well plate, 37° C., 10 h) amounted to 25 µg/mL. Besides, the “MIC against E. coli BL21” value in the experiment on E. coli BL21 (96-well plate, 37° C., 10 h) stood at 12.5 µg/mL.

Take “PRT738 (FHTRCEEDNGGCSHLCLLSPSEPFYTCACPTGVQLQDNGRTCK; listed as Homo sapiens)”: the “MIC C. diversus” value with Citrobacter diversus (96-well plate, 37° C., 10 h) was determined as 12.5 µg/mL. Moreover, the “MIC E. cloacae” value in the experiment on Enterobacter cloacae (96-well plate, 37° C., 10 h) is 12.5 µg/mL. Also, the “MIC P. aeruginosa” value with Pseudomonas aeruginosa (96-well plate, 37° C., 10 h) worked out at 25 µg/mL. In the experiment with Klebsiella pneumonia (96-well plate, 37° C., 10 h), the “MIC K. pneumonia” value is 50 µg/mL. This substance displayed a minimal inhibitory concentration (MIC) in the experiment with E. coli DH5α of 50 µg/mL. Further, in the experiment with Proteus mirabilis (96-well plate, 37° C., 10 h), the “MIC P. mirabilis” value turned out to be 50 µg/mL. Moreover, in the experiment with Serratia marcescens (96-well plate, 37° C., 10 h), the “MIC S. marcescens” value was 25 µg/mL. The “MIC P. vulgaris” value against Proteus vulgaris (96-well plate, 37° C., 10 h) was determined as 25 µg/mL. Further, in the experiment on Moraxella catarrhalis (96-well plate, 37° C., 10 h), the “MIC M. catarrhalis” value was found to be 25 µg/mL. Moreover, in the experiment on Aeromonas hydrophila (96-well plate, 37° C., 10 h), the “MIC A. hydrophila” value worked out at 50 µg/mL. For the same substance, the “MIC E. coli BL21” value in the experiment with E. coli BL21 (96-well plate, 37° C., 10 h) worked out at 12.5 µg/mL.

“PRT797 (WGPNCSVSCSCENGGSCSPEDGSCECAPGFRGPLCQ; listed as Homo sapiens)”: the “MIC (μg/mL) C. diversus” value against Citrobacter diversus (10 h cultivation at 37° C.) worked out at 50 µg/mL. Also, the “MIC (μg/mL) E. cloacae” value in the experiment on Enterobacter cloacae (10 h cultivation at 37° C.) was determined as 50 µg/mL. The “MIC (μg/mL) P. aeruginosa” value with Pseudomonas aeruginosa (10 h cultivation at 37° C.) is 50 µg/mL. The “MIC (μg/mL) K. pneumonia” value against Klebsiella pneumonia (10 h cultivation at 37° C.) is 25 µg/mL. For the same substance, the minimum inhibitory concentration (MIC) in the experiment with E. coli DH5α worked out at 50 µg/mL. In addition, the “MIC (μg/mL) P. mirabilis” value against Proteus mirabilis (10 h cultivation at 37° C.) was determined as 12.5 µg/mL. The “MIC (μg/mL) S. marcescens” value against Serratia marcescens (10 h cultivation at 37° C.) amounted to 12.5 µg/mL. In addition, the “MIC (μg/mL) P. vulgaris” value in the experiment on Proteus vulgaris (10 h cultivation at 37° C.) is 12.5 µg/mL. In addition, the “MIC (μg/mL) M. catarrhalis” value in the experiment with Moraxella catarrhalis (10 h cultivation at 37° C.) came out at 12.5 µg/mL. The “MIC (μg/mL) A. hydrophila” value with Aeromonas hydrophila (10 h cultivation at 37° C.) amounted to 12.5 µg/mL. Besides, in the experiment with E. coli BL21 (10 h cultivation at 37° C.), the “MIC (μg/mL) E. coli BL21” value was found to be 12.5 µg/mL.

The values above are taken from US9833497B2, “Human originated EGF domain proteins and use of the same” (CHENGDU SOURCEBIO LIMITED-LIABILITY COMPANY, priority 2013, dated 2017).
